# Experimental data taken from patent publication US20050049278A1, “Benzo[1,3]dioxole compounds, pharmaceutical compositions thereof, and processes of making and using the same” (priority 2003, published 2005).
# Where two headings read alike, the source gives them in different places.
# Tests used:
# [1] = tested on: non-stimulated peripheral blood lymphocytes (PBLs); experiment: Cell cycle analysis on non-stimulated peripheral blood lymphocytes; format: cell-based; conditions: PBL (non-stimulated), 25 μM, 16 to 24 hrs
# Procedure: (§1) The effects of compounds 5a,b on the cell cycle were further examined on phytohemagglutinin (PHA)-stimulated and non-stimulated peripheral blood lymphocytes (PBLs).
# (§2) PBLs were cultured in DMEM media (Celigro) supplemented with 10% Fetal Bovine Serum (Tissue Culture Biologicals) and 1× Penicillin/Streptomycin/Glutamine (Gibco). The cells were grown at 37° C. with 5% CO2, plated in six-well plates at 2.5-5×10^6 cells/well, and treated for 16 to 24 hrs with the compounds at the concentrations shown in Table 2, below, with or without 1 μg/ml PHA (Sigma). The cells were then triturated off the bottom of the wells, washed 1× with PBS, then fixed with 70% ethanol, and stored at 4° C. before staining and FACS analysis.
# [2] = tested on: phytohemagglutinin (PHA)-stimulated peripheral blood lymphocytes (PBLs); experiment: Cell cycle analysis on phytohemagglutinin-stimulated peripheral blood lymphocytes; format: cell-based; conditions: PHA-stim. PBL (1 μg/ml PHA), 25 μM, 16 to 24 hrs
# Procedure: as §1, §2
# HEK293 cells [3] = experiment: HEK293 cell viability, CellTiter 96 Aqueous One Solution Cell Proliferation assay; format: cell-based; conditions: Homo sapiens, HEK293, 48 h
# Procedure: The effect of various doses of compounds 5a, 5a,b, and 9a on the viability of HEK293 cells was examined using the CellTiter 96 Aqueous One Solution Cell Proliferation assay (Promega). The HEK293 cells were cultured in DMEM media (Cellgro) or phenol red-free DMEM (Gibco) supplemented with 10% Fetal Bovine Serum (Tissue Culture Biologicals) and 1× Penicillin/Streptomycin/Glutamine (Gibco). The cells were grown at 37° C. with 5% CO2. HEK293 cells were seeded into each well of a 96-well plate (5000 cells/well) and incubated overnight to allow the cells to attach. The culture media was removed and replaced with 100 μl of phenol red-free media containing the compounds 5a, 5a,b, and 9a at various concentrations. The cells were allowed to grow in the presence of the compounds for 48 hrs. At the end of the treatment, 20 μl of CellTiter 96 Aqueous One Solution reagent was added directly into each well, and the cells were incubated at 37° C. for 2 hrs. This reagent converts to a form that absorbs light at 490 nm by living cells. Thus, absorbance at 490 nm is proportional to the number of viable cells. The 490 nm absorbance was measured on a BioRad plate reader. Control wells containing no cells were included in this assay to correct for background absorbance.
# HEK293 cells [4] = experiment: Cell cycle analysis by FACS of HEK293 cells; format: cell-based; conditions: for Percent of Cells in G1 / Percent of Cells in G2/M / Percent of Cells in S: treated 16 to 24 hrs; for FACS profile / cell cycle effect: HEK293, FACS; for accumulation of cells in G2/M: HEK293, concentrations as in Table 1
# Procedure: Fluorescence-activated cell sorting (FACS) analysis was used to examine the cell cycle state when the cells were incubated with compounds of formula (I) as well as several control compounds, including DMSO, noscapine (a known G2/M inhibitor), and colchicine (a known G2/M inhibitor).
# as §2, with “In particular, HEK293 cells” for “PBLs”, “2.5×10^6” for “2.5-5×10^6”, “1, below.” for “2, below, with or without 1 μg/ml PHA (Sigma).”
# The DNA content of cells was determined using a FacsVantage SE flow cytometry system (Becton Dickinson, San Jose, Calif.) and a Cellular DNA Flow Cytometric Analysis Kit (Roche Applied Science, Indianapolis, Ind.). Cell cycle analysis was performed using Cylchred 1.0.2 software.
# [5] = tested on: HTS-tubulin (90% tubulin plus 10% microtubule associated proteins); experiment: Microtubule polymerization assay (turbidity at 340 nm); format: biochemical; conditions: absorbance at 340 nm, 30 minutes, 37° C., FIG. 3
# Procedure: Microtubule polymerization assays were performed to determine if compounds, such as compound 9a, cause G2/M cell cycle arrest by affecting microtubule dynamics. A microtubule polymerization assay was performed that takes advantage of the observation that there is an increase in turbidity that can be measured at 340 nm as tubulin heterodimers polymerize to form microtubules. In brief, HTS-tubulin (90% tubulin plus 10% microtubule associated proteins; Cytoskeleton Inc., Denver, Colo.) was resuspended in G-PEM buffer (80 mM Pipes, pH 6.9; 2 mM MgCl2; 0.5 mM EDTA; 1 mM GTP) to 10 mg/ml. This suspension was clarified by centrifugation for 10 min. at 225,000×g. The supernatant was then diluted with G-PEM buffer to 2 mg/ml and 100 μl of this solution was added to the appropriate number of ½-area wells in a 96-well format (Corning). Each compound (10 μl of a 10× final concentration in 10% DMSO) was added to the wells in duplicate and immediately put into a pre-warmed (37° C.) Spectromax 190 plate reader. The absorbance was read at 340 nm immediately (time=0) and every minute thereafter for 30 minutes.
# The tubulin mix was incubated in the presence of paclitaxel (a microtubule stabilizing agent), nocodazole (a microtubule destabilizing agent), vehicle control (DMSO), or varying concentrations of compound 9a (FIG. 3).
# topoisomerase I = molecular target: T1, topoisomerase I (Homo sapiens, UniProt P11387); experiment: Topoisomerase I assay (supercoiled pBluescript DNA, agarose gel); format: biochemical; conditions: in vitro, FIG. 2
# T1 construct: purchased Sigma-Aldrich
# T1 sequence (P11387 1-765): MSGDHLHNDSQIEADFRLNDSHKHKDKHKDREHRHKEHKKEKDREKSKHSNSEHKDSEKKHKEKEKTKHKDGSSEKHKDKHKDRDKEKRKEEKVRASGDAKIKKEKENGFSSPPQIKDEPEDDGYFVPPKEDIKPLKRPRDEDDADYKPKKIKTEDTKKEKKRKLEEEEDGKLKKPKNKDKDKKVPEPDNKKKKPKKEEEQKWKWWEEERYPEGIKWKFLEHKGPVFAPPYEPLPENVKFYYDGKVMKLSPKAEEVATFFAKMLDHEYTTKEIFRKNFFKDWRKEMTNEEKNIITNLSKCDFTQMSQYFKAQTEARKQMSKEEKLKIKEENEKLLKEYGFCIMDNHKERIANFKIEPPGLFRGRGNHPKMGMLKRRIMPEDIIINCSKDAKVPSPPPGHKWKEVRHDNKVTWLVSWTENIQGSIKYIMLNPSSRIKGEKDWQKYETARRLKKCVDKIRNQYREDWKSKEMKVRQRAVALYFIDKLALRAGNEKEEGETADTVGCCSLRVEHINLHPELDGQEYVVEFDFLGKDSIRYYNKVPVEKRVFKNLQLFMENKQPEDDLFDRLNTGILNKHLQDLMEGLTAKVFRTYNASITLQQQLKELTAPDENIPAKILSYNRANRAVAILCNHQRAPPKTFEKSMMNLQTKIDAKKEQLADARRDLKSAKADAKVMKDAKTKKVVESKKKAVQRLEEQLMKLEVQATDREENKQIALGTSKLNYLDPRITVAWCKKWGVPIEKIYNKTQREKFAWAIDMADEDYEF
# Procedure: (§3) The ability of compounds that cause S-phase cell cycle arrest to inhibit topoisomerase I and topoisomerase II was examined. Analysis of topoisomerase activity was performed in 20 μl reactions with either topoisomerase I reaction buffer (10 mM TRIS-HCl, pH 7.5; 100 mM NaCl; 1 mM 2-mercaptoethanol) or topoisomerase II reaction buffer (50 mM Tris-HCl, pH 8; 120 mM KCl; 10 mM MgCl2; 0.5 mM dithiothreitol; 0.5 mM ATP; 30 μg BSA/ml) containing 125 ng supercoiled pBluescript DNA and either 2 U topoisomerase I (Sigma-Aldrich) or topoisomerase II (Topogen Inc.). After reaction at 37° C. for 20 minutes, the reactions were terminated through the addition of sodium dodecyl sulfate to 1% w/v and heating to 65° C. for 10 minutes. Proteinase K was then added to 10 μg/ml and digestion was allowed to proceed at 37° C. for 20 minutes before electrophoresis of the DNA in 0.8% agarose gels containing 0.5 μg/ml ethidium bromide for 18 hours at 75V in 0.5×TBE buffer. DNA was then visualized using a UV-transilluminator and the image was captured using a BioRad CCD camera and gel documentation system.
# topoisomerase II = molecular target: T2, topoisomerase II (Homo sapiens, UniProt P11388); experiment: Topoisomerase II assay (supercoiled pBluescript DNA, agarose gel); format: biochemical; conditions: in vitro, FIG. 2
# T2 construct: purchased Topogen Inc
# Procedure: as §3, with “Analysis” for “The ability of compounds that cause S-phase cell cycle arrest to inhibit topoisomerase I and topoisomerase II was examined. Analysis”
# T2 sequence (P11388 whole entry): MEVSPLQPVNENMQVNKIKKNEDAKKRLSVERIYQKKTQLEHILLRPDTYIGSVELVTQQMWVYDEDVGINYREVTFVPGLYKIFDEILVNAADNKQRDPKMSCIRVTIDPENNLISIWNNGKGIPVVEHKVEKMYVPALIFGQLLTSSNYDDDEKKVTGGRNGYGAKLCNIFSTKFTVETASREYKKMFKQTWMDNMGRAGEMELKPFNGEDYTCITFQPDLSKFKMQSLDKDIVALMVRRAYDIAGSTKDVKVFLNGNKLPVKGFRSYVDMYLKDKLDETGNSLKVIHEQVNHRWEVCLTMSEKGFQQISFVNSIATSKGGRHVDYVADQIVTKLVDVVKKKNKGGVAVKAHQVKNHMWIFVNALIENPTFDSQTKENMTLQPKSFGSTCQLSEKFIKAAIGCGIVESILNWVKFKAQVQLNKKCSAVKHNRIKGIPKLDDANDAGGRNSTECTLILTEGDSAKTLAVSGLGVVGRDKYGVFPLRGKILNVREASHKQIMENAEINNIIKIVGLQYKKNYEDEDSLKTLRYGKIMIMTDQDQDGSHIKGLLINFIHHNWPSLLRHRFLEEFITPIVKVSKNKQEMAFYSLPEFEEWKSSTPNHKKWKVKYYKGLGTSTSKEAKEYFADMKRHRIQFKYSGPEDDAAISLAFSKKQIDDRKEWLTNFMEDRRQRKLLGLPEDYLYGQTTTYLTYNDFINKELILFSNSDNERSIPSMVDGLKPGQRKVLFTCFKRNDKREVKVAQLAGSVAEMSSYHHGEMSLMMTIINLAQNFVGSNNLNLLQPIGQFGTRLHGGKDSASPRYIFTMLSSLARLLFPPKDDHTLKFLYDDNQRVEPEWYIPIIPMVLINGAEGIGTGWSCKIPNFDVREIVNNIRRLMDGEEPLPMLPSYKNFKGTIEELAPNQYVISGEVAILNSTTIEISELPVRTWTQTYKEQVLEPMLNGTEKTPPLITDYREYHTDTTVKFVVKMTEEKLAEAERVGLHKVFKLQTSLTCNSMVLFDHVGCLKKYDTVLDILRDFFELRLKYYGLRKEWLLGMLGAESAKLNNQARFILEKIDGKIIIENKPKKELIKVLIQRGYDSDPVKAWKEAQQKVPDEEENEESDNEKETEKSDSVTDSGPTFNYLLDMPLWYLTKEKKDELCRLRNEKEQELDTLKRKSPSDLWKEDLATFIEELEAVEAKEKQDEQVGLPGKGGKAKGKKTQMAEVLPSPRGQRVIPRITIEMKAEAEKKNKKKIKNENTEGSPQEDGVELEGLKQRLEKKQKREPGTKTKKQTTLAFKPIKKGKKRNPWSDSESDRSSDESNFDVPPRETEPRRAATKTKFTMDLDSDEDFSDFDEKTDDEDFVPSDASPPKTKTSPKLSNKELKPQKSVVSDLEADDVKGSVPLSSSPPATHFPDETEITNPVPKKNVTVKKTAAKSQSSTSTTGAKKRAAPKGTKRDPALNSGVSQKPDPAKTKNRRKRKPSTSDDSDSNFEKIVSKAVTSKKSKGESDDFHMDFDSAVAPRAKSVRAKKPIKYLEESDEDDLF
smiles,measurement,setting,value
"COc1cc(COc2c(OC)ccc3c2C(=O)OC3[C@H]2c3c(cc4c(c3OC)OCO4)CCN2C)cc(OC)c1OC (stereo partly shown) [Compound 5a,b]",Percent of Cells in G1,[1],91.6%
same,Percent of Cells in G2/M,[1],1.5%
same,Percent of Cells in S,[1],6.8%
same,Percent of Cells in G1,[2],69.3%
same,Percent of Cells in G2/M,[2],5.4%
same,Percent of Cells in S,[2],25.3%
same,EC50,HEK293 cells [3],400 nM
same,EC50,HEK293 cells [3]; text summary,< 1000 nM
same,Percent of Cells in G1,"HEK293 cells [4]; HEK293, 50 μM",13.1%
same,Percent of Cells in G2/M,"HEK293 cells [4]; HEK293, 50 μM",6.3%
same,Percent of Cells in S,"HEK293 cells [4]; HEK293, 50 μM",80.7%
same,FACS profile / cell cycle effect,HEK293 cells [4],"accumulate more cells in S-phase than 6a,b"
COc1ccc2c(c1S)C(=O)O[C@@H]2[C@H]1c2c(cc3c(c2OC)OCO3)CCN1C [Compound 13],Percent of Cells in G1,"HEK293 cells [4]; HEK293, 5 μM",3.2%
same,Percent of Cells in G2/M,"HEK293 cells [4]; HEK293, 5 μM",89.6%
same,Percent of Cells in S,"HEK293 cells [4]; HEK293, 5 μM",7.2%
same,accumulation of cells in G2/M,HEK293 cells [4],~90%
COc1cc(COc2c(OC)ccc3c2C(=O)O[C@@H]3[C@H]2c3c(cc4c(c3OC)OCO4)CCN2C)cc(OC)c1OC [Compound 5a],EC50,HEK293 cells [3]; read-out: EC50,300 nM
same,EC50,"HEK293 cells [3]; text summary, read-out: EC50",< 1000 nM
"COC(=O)Nc1nc2ccc(C(=O)c3cccs3)cc2[nH]1 [Nocodazole, reference compound]",EC50,HEK293 cells [3]; read-out: EC50,< 20 nM
same,effect on microtubule polymerization,[5],decreased microtubule polymerization
COc1ccc2c(c1)C(=O)O[C@@H]2[C@H]1c2c(cc3c(c2OC)OCO3)CCN1C [Compound 12],Percent of Cells in G1,"HEK293 cells [4]; HEK293, 1 μM",3.8%
same,Percent of Cells in G2/M,"HEK293 cells [4]; HEK293, 1 μM",89.8%
same,Percent of Cells in S,"HEK293 cells [4]; HEK293, 1 μM",6.4%
same,accumulation of cells in G2/M,HEK293 cells [4],~90%
"COc1ccc2c(c1OCc1ccccc1)C(=O)OC2[C@H]1c2c(cc3c(c2OC)OCO3)CCN1C (stereo partly shown) [6a,b]",Percent of Cells in G1,"HEK293 cells [4]; HEK293, 50 μM",12.1%
same,Percent of Cells in G2/M,"HEK293 cells [4]; HEK293, 50 μM",16.7%
same,Percent of Cells in S,"HEK293 cells [4]; HEK293, 50 μM",71.2%
same,FACS profile / cell cycle effect,HEK293 cells [4],accumulating in S-phase
CC[C@@]1(O)C(=O)OCc2c1cc1n(c2=O)Cc2cc3c(CN(C)C)c(O)ccc3nc2-1 [topotecan],concentrations at which topoisomerase I activity was inhibited,topoisomerase I,below 3 μM
same,inhibition of topoisomerase II activity,topoisomerase II,neither topotecan nor noscapine acts as inhibitors
"COc1cc2c(c(OC)c1OC)-c1ccc(OC)c(=O)cc1[C@@H](NC(C)=O)CC2 [colchicine, reference compound]",Percent of Cells in G1,"HEK293 cells [4]; HEK293, 10 μM",2.7%
same,Percent of Cells in G2/M,"HEK293 cells [4]; HEK293, 10 μM",83.4%
same,Percent of Cells in S,"HEK293 cells [4]; HEK293, 10 μM",13.9%
COc1cc([C@@H]2c3cc4c(cc3[C@@H](O[C@@H]3O[C@@H]5CO[C@@H](C)O[C@H]5[C@H](O)[C@H]3O)[C@H]3COC(=O)[C@H]23)OCO4)cc(OC)c1O [etoposide],inhibition of topoisomerase I activity,topoisomerase I,neither etoposide nor noscapine inhibited
"CC(=O)O[C@H]1C(=O)[C@@]2(C)[C@H]([C@H](OC(=O)c3ccccc3)[C@]3(O)C[C@H](OC(=O)[C@H](O)[C@@H](NC(=O)c4ccccc4)c4ccccc4)C(C)=C1C3(C)C)[C@]1(OC(C)=O)CO[C@@H]1C[C@@H]2O [Paclitaxel, reference compound]",EC50,HEK293 cells [3]; read-out: EC50,< 100 nM
same,effect on microtubule polymerization,[5],increased microtubule polymerization
"COc1ccc2c(c1C#N)C(=O)O[C@@H]2[C@H]1c2c(cc3c(c2OC)OCO3)CCN1C [Compound 10, 5-methoxy-1-(4-methoxy-6-methyl-5,6,7,8-tetrahydro-[1,3]dioxolo-[4,5-g]isoguinolin-5-yl)-3-oxo-1,3-dihydro-isobenzofuran-4-carbonitrile]",Percent of Cells in G1,"HEK293 cells [4]; HEK293, 50 μM",2%
same,Percent of Cells in G2/M,"HEK293 cells [4]; HEK293, 50 μM",89.2%
same,Percent of Cells in S,"HEK293 cells [4]; HEK293, 50 μM",8.8%
same,accumulation of cells in G2/M,HEK293 cells [4],~90%
